Data as given in US9062061B2, “Compound having PARP inhibitory activity” (SANTEN PHARMACEUTICAL CO., LTD., priority 2011, dated 2015).
Read-outs that look alike come from different tables or passages of the source.

Assays:
[1] = biological target: T1, human recombinant PARP1 (Homo sapiens, UniProt P09874); assay: PARP inhibitory activity measurement test (Universal Colorimetric PARP Assay kit, Trevigen); format: biochemical; conditions: compound concentration: 10 μM, read-out: PARP1 inhibition rate (%)
T1 construct: purchased Trevigen 4677-096-K
Experimental: For evaluating PARP inhibitory activity of the present compound, inhibitory activity of each test compound against human recombinant PARP 1 was measured using Universal Colorimetric PARP Assay kit with Histone-Coated Strip Wells (Cat No.: 4677-096-K) available from Trevigen. The test was conducted according to the procedure in the instruction attached to this kit. The concrete operation will be described below.
After dissolving the test compound in dimethyl sulfoxide, the solution was diluted with a PARP buffer attached to the kit to prepare a 50 μM test compound solution.
In each well of a histone-coated 96-well plate, 10 μL of the test compound solution (50 μM), 15 μL of human recombinant PARP1 (33.3 Unit/mL) and 25 μL of PARP cocktail (containing activated DNA and biotinated NAD) were added, and incubated at room temperature for 1 hour (final reaction amount: 50 μL). Each well was washed twice with 200 μL of 0.1% Triton-X-containing Dulbecco's phosphate buffer, and further washed twice with 200 μL of Dulbecco's phosphate buffer, and then 50 μL of Strep-HRP was added, followed by incubation at room temperature for 1 hour. Each well was washed twice with 200 μL of 0.1% Triton-X-containing Dulbecco's phosphate buffer, and further washed twice with 200 μL of Dulbecco's phosphate buffer, and then 50 μL of TACS-Sapphire coloriometric substrate was added, followed by incubation at room temperature for 15 minutes. After stopping the reaction by adding 50 μL of 0.2 M HCl, absorbance at 450 nm (Abs 450) was measured by a microplate reader. The number of examples in each group was 1 to 2.
Using a well into which dimethyl sulfoxide and a PARP buffer were added in place of the test compound solution and human recombinant PARP1, the above operation was conducted as a negative control.
Using a well into which a PARP buffer containing dimethyl sulfoxide was added in place of the test compound solution, the above operation was conducted as a positive control.
PARP1 inhibition rate (%) was calculated according to the following Formula 1. PARP1 inhibition rate(%)=(AbsB−AbsX)/(AbsB−AbsA)×100 [Formula 1]
AbsA: absorbance of negative control (Abs 450)
AbsB: absorbance of positive control (Abs 450)
AbsX: absorbance of test compound-treated group (Abs 450)

[2] = test system: rat thrombin-induced retinal vascular hyperpermeability model; assay: Retinal vascular hyperpermeability inhibitory activity in rat thrombin model (intravitreal protein concentration, Bradford method); format: in vivo; conditions: thrombin 3 U/eye intravitreal; test compound 100 mg/kg orally 1.5 hours before and 22.5 hours after thrombin; Brown Norway male rats
Experimental: For examining the influence of the present compound on retinal vascular hyperpermeability, the retinal vascular hyperpermeability inhibitory activity of the test compound was evaluated using a rat thrombin-induced retinal vascular hyperpermeability model. The rat thrombin-induced retinal vascular hyperpermeability model is an animal in which retinal vascular permeability is increased by administration of thrombin, and is used as a model animal for diabetic retinopathy, diabetic macular edema and so on (IONS, 2000, 41(4), S18, 92).
A thrombin liquid preparation was intravitreally administered to 8-week old Brown Norway male rat at a dose of 3 U/eye, and the vitreous body was collected on the next day of administration, and intravitreal protein concentration was measured by the Bradford method. A normal control group received intravitreal administration of DPBS. The number of examples in each group was 4 rats (7-8 eyes).
(Administration Method) • Test compound-administered group: A solution of each test compound suspended in 1% (w/v) methylcellulose aqueous solution was orally administered in a dose of 100 mg/kg, 1.5 hours before and 22.5 hours after thrombin administration. • Normal control group and vehicle-administered group
According to the following Formula 3, retinal vascular hyperpermeability inhibition rate was calculated. […]

[3] = test system: rat N-methyl-N-nitrosourea (MNU)-induced retinal degeneration model; assay: Retinal degeneration inhibitory activity in rat MNU-induced model (retinal volume by OCT); format: in vivo; conditions: po, 168 h, seventh day, Brown Norway male rats, read-out: Retinal volume reduction inhibition rate (%); for inhibition in vivo at 10 mg/kg: test compound 10 mg/kg orally once 30 minutes before MNU
Experimental: For examining influence of the present compound on the retinal degeneration, retinal degeneration inhibitory activity of test compound was evaluated, using a rat N-methyl-N-nitrosourea (hereinafter, “MNU”)-induced retinal degeneration model. The rat MNU-induced retinal degeneration model is a model animal in which cell death of retinal photoreceptor cell is induced by administration of MNU which is a DNA alkylation agent, and is generally used as a model animal for chorioretinal degenerative diseases such as retinitis pigmentosa (Exp. Eye. Res., 84(2), 285-292 (2007)).
By the previous day of MNU administration, retinal volumes of 8-week-old Brown Norway male rats were measured by using optical coherence tomography (OCT) (product of Carl Zeiss, model number: STRATUS OCT Model 3000). An MNU administration liquid was intraperitoneally administered to the rats at a dose of 50 to 60 mg/kg, and on the seventh day after administration, retinal volumes were measured by using OCT. The normal control group underwent no treatment, and retinal volumes were measured on the same day as the MNU administration group. The number of examples in each group was 4 rats (8 eyes).
(Administration Method) • Test compound-administered group: A solution of each test compound suspended in 1% (w/v) methylcellulose aqueous solution was orally administered once 30 minutes before MNU administration at a dose of 1 to 30 mg/kg. • Normal control group and vehicle-administered group: 1% (w/v) methylcellulose aqueous solution was orally administered once 30 minutes before MNU administration.
According to the following Formula 2, retinal volume reduction inhibition rate (%) was calculated. Retinal volume reduction inhibition rate(%)=(RVX-pre/RVX-post−RVB-pre/RVB-post)/(RVA-pre/RVA-post−RVB-pre/RVB-post)×100 [Formula 2]
RVA-pre: retinal volume before MNU administration of normal control group (mm^3)
RVA-post: retinal volume on the seventh day after MNU administration of normal control group (mm^3)
RVB-pre: retinal volume before MNU administration of vehicle-administered group (mm^3)
RVB-post: retinal volume on the seventh day after MNU administration of vehicle-administered group (mm^3)
RVX-pre: retinal volume before MNU administration of test compound-administered group (mm^3)
RVX-post: retinal volume on the seventh day after MNU administration of test compound-administered group (mm^3)

T1 sequence (P09874 whole entry): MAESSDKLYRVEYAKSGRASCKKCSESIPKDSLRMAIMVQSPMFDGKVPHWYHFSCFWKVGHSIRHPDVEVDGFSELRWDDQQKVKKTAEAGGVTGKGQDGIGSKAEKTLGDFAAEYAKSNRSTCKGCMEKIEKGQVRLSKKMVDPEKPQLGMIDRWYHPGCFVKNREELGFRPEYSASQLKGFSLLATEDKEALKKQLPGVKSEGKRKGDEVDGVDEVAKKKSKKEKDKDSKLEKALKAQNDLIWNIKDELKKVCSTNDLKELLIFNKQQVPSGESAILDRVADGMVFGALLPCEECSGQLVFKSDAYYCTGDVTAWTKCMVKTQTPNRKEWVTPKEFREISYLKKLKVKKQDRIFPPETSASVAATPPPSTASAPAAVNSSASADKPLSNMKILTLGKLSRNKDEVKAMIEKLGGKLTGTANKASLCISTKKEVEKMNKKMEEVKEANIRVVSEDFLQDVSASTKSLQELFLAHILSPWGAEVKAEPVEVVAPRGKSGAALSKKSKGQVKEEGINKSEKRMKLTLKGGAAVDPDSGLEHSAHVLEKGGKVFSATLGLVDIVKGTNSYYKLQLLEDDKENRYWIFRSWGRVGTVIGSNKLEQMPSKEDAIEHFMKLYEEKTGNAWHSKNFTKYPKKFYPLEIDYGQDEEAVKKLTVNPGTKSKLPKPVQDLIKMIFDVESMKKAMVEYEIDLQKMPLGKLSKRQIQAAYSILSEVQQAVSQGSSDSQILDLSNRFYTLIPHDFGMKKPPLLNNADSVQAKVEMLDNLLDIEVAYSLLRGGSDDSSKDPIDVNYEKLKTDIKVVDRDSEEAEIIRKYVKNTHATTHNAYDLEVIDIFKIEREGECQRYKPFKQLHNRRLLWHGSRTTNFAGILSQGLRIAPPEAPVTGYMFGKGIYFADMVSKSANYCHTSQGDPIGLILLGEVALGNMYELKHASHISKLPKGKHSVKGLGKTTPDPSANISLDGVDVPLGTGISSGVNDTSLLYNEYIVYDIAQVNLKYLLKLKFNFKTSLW

For `O=c1[nH]c2cc(CN3CCN(c4ccc(F)cc4)CC3)cn2c2ccccc12` [Compound 2-1, 2-[4-(4-Fluorophenyl)piperazin-1-ylmethyl]pyrrolo[1,2-a]quinazolin-5 (4H)-one], the inhibition at 10 µM [1] was 100%, the “Retinal vascular hyperpermeability inhibition rate (%)” value [2] was 63% and the inhibition in vivo at 10 mg/kg ([3]; MNU 60 mg/kg i.p.) was 65%.

With `O=c1[nH]c2cc(CN3CCN(c4ccc(Cl)cc4)CC3)cn2c2ccccc12` [Compound 2-12, 2-[4-(4-Chlorophenyl)piperazin-1-ylmethyl]pyrrolo[1,2-a]quinazolin-5(4H)-one] the inhibition at 10 µM [1] was 100% and the inhibition in vivo at 30 mg/kg ([3]; MNU 60 mg/kg i.p., test compound 30 mg/kg orally once 30 minutes before MNU) was 47%.

For `O=c1[nH]c2cc(CN3CCC(c4ccc(F)cc4)CC3)cn2c2ccccc12` [Compound 2-14, 2-[4-(4-Fluorophenyl)piperidin-1-ylmethyl]pyrrolo[1,2-a]quinazolin-5(4H)-one], the inhibition at 10 µM [1] was 100% and the inhibition in vivo at 10 mg/kg ([3]; MNU 50 mg/kg i.p.) was 33%.

`COc1ccc(N2CCN(Cc3cc4[nH]c(=O)c5ccccc5n4c3)CC2)cc1` [Compound 2-16, 2-[4-(4-Methoxyphenyl)piperazin-1-ylmethyl]pyrrolo[1,2-a]quinazolin-5(4H)-one] was tested, and the inhibition at 10 µM [1] was 100% and the inhibition in vivo at 10 mg/kg ([3]; MNU 50 mg/kg i.p.) was 29%.

With `O=c1[nH]c2cc(CN3CCN(c4ccccn4)CC3)cn2c2ccccc12` [Compound 2-17, 2-[4-(Pyridin-2-yl)piperazin-1-ylmethyl]pyrrolo[1,2-a]quinazolin-5(4H)-one] the inhibition at 10 µM [1] was 100% and the inhibition in vivo at 10 mg/kg ([3]; MNU 50 mg/kg i.p.) was 48%.

Compound `O=c1[nH]c2cc(CN3CCN(c4ccc(Cl)cn4)CC3)cn2c2ccccc12` [Compound 2-30, 2-[4-(5-Chloropyridin-2-yl)piperazin-1-ylmethyl]pyrrolo[1,2-a]quinazolin-5(4H)-one] has an inhibition at 10 µM [1] of 100% and an inhibition in vivo at 10 mg/kg ([3]; MNU 50 mg/kg i.p.) of 72%.

`O=c1[nH]c2cc(CN3CCN(c4ccc(F)cc4F)CC3)cn2c2ccccc12` [Compound 2-35, 2-[4-(2,4-Difluorophenyl)piperazin-1-ylmethyl]pyrrolo[1,2-a]quinazolin-5(4H)-one] showed an inhibition at 10 µM [1] of 100% and an inhibition in vivo at 10 mg/kg ([3]; MNU 50 mg/kg i.p.) of 61%.

In the case of `COc1cc(F)ccc1N1CCN(Cc2cc3[nH]c(=O)c4ccccc4n3c2)CC1` [Compound 2-39, 2-[4-(4-Fluoro-2-methoxyphenyl)piperazin-1-ylmethyl]pyrrolo[1,2-a]quinazolin-5(4H)-one], the inhibition at 10 µM [1] is reported as 100% and the inhibition in vivo at 10 mg/kg ([3]; MNU 50 mg/kg i.p.) is reported as 84%.

Compound `O=c1[nH]c2cc(CN3CCN(c4ccc5c(c4)OCO5)CC3)cn2c2ccccc12` [Compound 2-40, 2-[4-(1,3-Benzodioxol-5-yl)piperazin-1-ylmethyl]pyrrolo[1,2-a]quinazolin-5(4H)-one] has an inhibition at 10 µM [1] of 100% and an inhibition in vivo at 10 mg/kg ([3]; MNU 50 mg/kg i.p.) of 88%.

In the case of `O=c1[nH]c2cc(CN3CCN(c4ccccn4)CC3)cn2c2ccc(F)cc12` [Compound 2-44, 7-Fluoro-2-[4-(pyridin-2-yl)piperazin-1-ylmethyl]pyrrolo[1,2-a]quinazolin-5(4H)-one], the inhibition at 10 µM [1] is reported as 98% and the inhibition in vivo at 10 mg/kg ([3]; MNU 50 mg/kg i.p.) is reported as 81%.

`O=c1[nH]c2cc(CN3CCN(c4ccc(F)cc4)CC3)cn2c2ccc(F)cc12` [Compound 2-45, 7-Fluoro-2-[4-(4-fluorophenyl)piperazin-1-ylmethyl]pyrrolo[1,2-a]quinazolin-5(4H)-one] gave an inhibition at 10 µM [1] of 100% and an inhibition in vivo at 1 mg/kg ([3]; MNU 50 mg/kg i.p., test compound 1 mg/kg orally once 30 minutes before MNU) of 81%.

`[2H]C([2H])(c1cc2[nH]c(=O)c3ccccc3n2c1)N1CCN(c2ccc(F)cc2)CC1` [Compound 4-1, 2-[1-[4-(4-Fluorophenyl)piperazin-1-yl]-1,1-dideuteriomethyl]pyrrolo[1,2-a]quinazolin-5(4H)-one] showed an inhibition at 10 µM [1] of 100% and an inhibition in vivo at 10 mg/kg ([3]; MNU 50 mg/kg i.p.) of 94%.
